Data published in patent US20250084078A1, “FUSED RING-SUBSTITUTED SIX-MEMBERED HETEROCYCLIC COMPOUND, AND PREPARATION METHOD THEREFOR AND USE THEREOF” (GENFLEFT THERAPEUTICS (SHANGHAI) INC., priority 2022, published 2025).

Columns and labels:
[1] = target: HPK1 (Homo sapiens, UniProt Q92918); experiment: SLP76 phosphorylation assay (intracellular HPK1 inhibitory activity, p-SLP76 S376 ELISA in Jurkat cells); settings: p-SLP76 IC50, Jurkat, Clone E6-1 cells; 1 h compound pre-incubation; anti-CD3 beads stimulation 20 min; Phospho-SLP-76 (Ser376) ELISA
Target sequence in this assay (Q92918 whole entry): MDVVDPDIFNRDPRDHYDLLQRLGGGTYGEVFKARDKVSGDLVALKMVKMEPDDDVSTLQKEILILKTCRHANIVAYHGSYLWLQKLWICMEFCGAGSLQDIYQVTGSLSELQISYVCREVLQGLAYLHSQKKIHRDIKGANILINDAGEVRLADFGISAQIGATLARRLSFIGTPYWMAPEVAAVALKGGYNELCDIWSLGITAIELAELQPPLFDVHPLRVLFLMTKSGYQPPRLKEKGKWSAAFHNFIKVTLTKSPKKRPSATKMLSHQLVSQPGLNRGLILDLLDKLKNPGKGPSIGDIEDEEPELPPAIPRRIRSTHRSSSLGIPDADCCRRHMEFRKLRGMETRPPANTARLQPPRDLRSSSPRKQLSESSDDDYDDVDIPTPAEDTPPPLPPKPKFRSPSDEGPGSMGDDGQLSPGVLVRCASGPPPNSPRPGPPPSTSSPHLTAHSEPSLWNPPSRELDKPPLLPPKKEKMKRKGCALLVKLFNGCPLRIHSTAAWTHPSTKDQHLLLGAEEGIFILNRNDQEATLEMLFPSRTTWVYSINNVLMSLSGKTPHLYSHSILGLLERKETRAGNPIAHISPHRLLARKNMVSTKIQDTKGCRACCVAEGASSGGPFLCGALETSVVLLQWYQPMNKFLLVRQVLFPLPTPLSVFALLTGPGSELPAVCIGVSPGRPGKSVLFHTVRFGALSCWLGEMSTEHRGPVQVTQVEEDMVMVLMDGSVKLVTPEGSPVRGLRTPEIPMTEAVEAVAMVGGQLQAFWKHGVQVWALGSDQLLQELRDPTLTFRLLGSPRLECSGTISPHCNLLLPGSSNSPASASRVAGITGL

[2] = target: T1, HPK1 (Homo sapiens, UniProt Q92918); experiment: HPK1 kinase activity assay (ADP-Glo); settings: HPK1 Kinase activity IC50, ADP-Glo; 1 nM HPK1, 10 μM ATP, 0.1 μg/μL MBP
T1 sequence (Q92918 1-346): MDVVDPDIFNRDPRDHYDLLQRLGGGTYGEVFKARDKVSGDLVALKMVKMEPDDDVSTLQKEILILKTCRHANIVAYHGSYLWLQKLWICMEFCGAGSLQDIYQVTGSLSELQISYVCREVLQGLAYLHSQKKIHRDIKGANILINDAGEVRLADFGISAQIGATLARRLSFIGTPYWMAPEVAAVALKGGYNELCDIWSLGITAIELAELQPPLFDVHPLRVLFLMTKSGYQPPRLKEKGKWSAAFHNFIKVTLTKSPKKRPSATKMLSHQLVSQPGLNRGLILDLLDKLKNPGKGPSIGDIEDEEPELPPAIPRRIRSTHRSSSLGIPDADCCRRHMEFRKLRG
Protocol: Preparation of buffer: Ix reaction buffer (40 mM Tris-HCl, 20 mM MgCl2, 0.01% Brij35, 50 μM DTT, 0.1 mg/ml BSA) was prepared using sterile water, which was prepared and used on the day of the experiment.
Preparation of 1000× drug stock plate: a 1000× compound stock plate was prepared. […] The compound stock plate was sealed with a sealing film and stored in a −20° C. refrigerator for later use.
Compound preparation and dosing: the 1000× drug stock plate was taken and melted at room temperature in the dark. Then 5× drug intermediate plate was prepared using reaction buffer and mixed well. 2 μL was transferred from the 5× drug intermediate plate into a 384-well plate, and negative control well and positive control well (in which 2 μL reaction buffer containing 0.5% DMSO was added) were set. Each point was repeated twice.
Preparation and incubation of reaction mixture: HPK1 protein was diluted to a 2.5× working solution with reaction buffer. 4 μL 2.5×HPK1 protein was added to each well containing test compound and positive control well, and 4 μL of reaction buffer without HPK1 protein was added to the negative control well. The obtained mixture was centrifuged at 1000 rpm for 1 min and then incubated in a 20° C. incubator for 15 min. A 2.5× mixed working solution of MBP protein and ATP was prepared with reaction buffer at concentrations of 0.5 μg/μL and 50 μM, respectively. 4 μL of the mixed working solution of MBP and ATP was added to each well, centrifuged at 1000 rpm for 1 min, and then incubated in a 20° C. incubator for 90 min.
ADP-Glo detection and reading plate: 10 μl ADP-Glo was added to each well of the test plate. The resulting mixture was centrifuged at 1000 rpm for 1 min and incubated in a 20° C. incubator for 60 min. Then 10 μL of the final incubation solution was transferred from the test plate to a new 384-well plate. 10 μL of kinase detection reagent was added to each well, centrifuged at 400 g for 1 min, and incubated in a 20° C. incubator for 60 min Chemiluminescent signals were read by a microplate reader.

Row | SMILES | IC50 [1] [nM] | IC50 [2] [nM]
1 | Cc1c[nH]c2ncc(-c3cc4c(c([C@@H]5COCCN5)c3)CN(C(=O)[C@H]3CCOC3)CC4)cc12 [Compound Z469, [6-(3-methyl-1H-pyrrolidine[2,3-b]pyridin-5-yl)-8-[(R)-morpholin-3-yl]-3,4-dihydroisoquinolin-2(1H)-yl]-[(S)-tetrahydrofuran-3-yl]methanone] | 125 | 0.06
2 | CCc1c[nH]c2ncc(-c3cc4c(c([C@@H]5COCCN5)c3)CN(C(=O)N3CCOCC3)CC4)cc12 [Compound Z448, (R)-(6-(3-ethyl-1H-pyrrolo[2,3-b]pyridin-5-yl)-8-(morpholin-3-yl)-3,4-dihydroisoquinolin-2(1H)-yl)(morpholine)methanone] | 120 | 0.29
3 | Cc1c[nH]c2ncc(-c3cc4c(c([C@@H]5COCCN5)c3)CN(C(=O)N3C[C@@H](C)O[C@H](C)C3)CC4)nc12 [Compound Z600] | 103 | 0.08
4 | CCc1c[nH]c2ncc(-c3cc4c(c([C@@H]5COCCN5)c3)CN(C(=O)N3CCOCC3)CC4)nc12 [Compound Z528, (R)-(6-(7-ethyl-5H-pyrrolo[2,3-b]pyrazin-2-yl)-8-(morpholin-3-yl)-3,4-dihydroisoquinolin-2(1H)-yl)(morpholino)methanone] | 42.4 | 0.16

Other lines, results leading:

Row | IC50 [1] [nM] | IC50 [2] [nM] | SMILES
5 | 66.2 | 0.33 | Cc1c[nH]c2ncc(-c3cc4c(c([C@@H]5COCCN5)c3)CN(C(=O)[C@](C)(O)C(F)(F)F)CC4)nc12 [Compound Z568, (S)-3,3,3-trifluoro-2-hydroxy-2-methyl-1-(6-(7-methyl-5H-pyrrolo[2,3-b]pyrazin-2-yl)-8-((R)-morpholin-3-yl)-3,4-dihydroisoquinolin-2(1H)-yl)propan-1-one]
6 | 119 | 0.43 | Cc1c[nH]c2ncc(-c3cc4c(c([C@@H]5COCCN5)c3)CN(C(=O)C(C)(C)O)CC4)nc12 [Compound Z507, (R)-1-(6-(7-methyl-5H-pyrrolo[2,3-b]pyrazin-2-yl)-8-(morpholin-3-yl)-3,4-dihydroisoquinolin-2(1H)-yl)-2-hydroxy-2-methylpropan-1-one]
